ChEMBL document CHEMBL5223091, “Targeting the Mitotic Kinesin KIF18A in Chromosomally Unstable Cancers: Hit Optimization Toward an In Vivo Chemical Probe” (J Med Chem, 2022)
Converted amounts (≈) assume the structure as drawn. The source made the active and inactive calls. The rule behind the calls is not given here.

Columns and labels:
[1] = target: Centromere-associated protein E (Homo sapiens, UniProt Q02224); test: Inhibition of recombinant GST-tagged human CENP-E assessed as inhibition of microtubule-stimulated ATPase activity preincubated for 30 mins followed by ATP addition and further incubated for 15 mins by ADP-Glo reagent based assay
Centromere-associated protein E, sequence (Q02224 whole entry): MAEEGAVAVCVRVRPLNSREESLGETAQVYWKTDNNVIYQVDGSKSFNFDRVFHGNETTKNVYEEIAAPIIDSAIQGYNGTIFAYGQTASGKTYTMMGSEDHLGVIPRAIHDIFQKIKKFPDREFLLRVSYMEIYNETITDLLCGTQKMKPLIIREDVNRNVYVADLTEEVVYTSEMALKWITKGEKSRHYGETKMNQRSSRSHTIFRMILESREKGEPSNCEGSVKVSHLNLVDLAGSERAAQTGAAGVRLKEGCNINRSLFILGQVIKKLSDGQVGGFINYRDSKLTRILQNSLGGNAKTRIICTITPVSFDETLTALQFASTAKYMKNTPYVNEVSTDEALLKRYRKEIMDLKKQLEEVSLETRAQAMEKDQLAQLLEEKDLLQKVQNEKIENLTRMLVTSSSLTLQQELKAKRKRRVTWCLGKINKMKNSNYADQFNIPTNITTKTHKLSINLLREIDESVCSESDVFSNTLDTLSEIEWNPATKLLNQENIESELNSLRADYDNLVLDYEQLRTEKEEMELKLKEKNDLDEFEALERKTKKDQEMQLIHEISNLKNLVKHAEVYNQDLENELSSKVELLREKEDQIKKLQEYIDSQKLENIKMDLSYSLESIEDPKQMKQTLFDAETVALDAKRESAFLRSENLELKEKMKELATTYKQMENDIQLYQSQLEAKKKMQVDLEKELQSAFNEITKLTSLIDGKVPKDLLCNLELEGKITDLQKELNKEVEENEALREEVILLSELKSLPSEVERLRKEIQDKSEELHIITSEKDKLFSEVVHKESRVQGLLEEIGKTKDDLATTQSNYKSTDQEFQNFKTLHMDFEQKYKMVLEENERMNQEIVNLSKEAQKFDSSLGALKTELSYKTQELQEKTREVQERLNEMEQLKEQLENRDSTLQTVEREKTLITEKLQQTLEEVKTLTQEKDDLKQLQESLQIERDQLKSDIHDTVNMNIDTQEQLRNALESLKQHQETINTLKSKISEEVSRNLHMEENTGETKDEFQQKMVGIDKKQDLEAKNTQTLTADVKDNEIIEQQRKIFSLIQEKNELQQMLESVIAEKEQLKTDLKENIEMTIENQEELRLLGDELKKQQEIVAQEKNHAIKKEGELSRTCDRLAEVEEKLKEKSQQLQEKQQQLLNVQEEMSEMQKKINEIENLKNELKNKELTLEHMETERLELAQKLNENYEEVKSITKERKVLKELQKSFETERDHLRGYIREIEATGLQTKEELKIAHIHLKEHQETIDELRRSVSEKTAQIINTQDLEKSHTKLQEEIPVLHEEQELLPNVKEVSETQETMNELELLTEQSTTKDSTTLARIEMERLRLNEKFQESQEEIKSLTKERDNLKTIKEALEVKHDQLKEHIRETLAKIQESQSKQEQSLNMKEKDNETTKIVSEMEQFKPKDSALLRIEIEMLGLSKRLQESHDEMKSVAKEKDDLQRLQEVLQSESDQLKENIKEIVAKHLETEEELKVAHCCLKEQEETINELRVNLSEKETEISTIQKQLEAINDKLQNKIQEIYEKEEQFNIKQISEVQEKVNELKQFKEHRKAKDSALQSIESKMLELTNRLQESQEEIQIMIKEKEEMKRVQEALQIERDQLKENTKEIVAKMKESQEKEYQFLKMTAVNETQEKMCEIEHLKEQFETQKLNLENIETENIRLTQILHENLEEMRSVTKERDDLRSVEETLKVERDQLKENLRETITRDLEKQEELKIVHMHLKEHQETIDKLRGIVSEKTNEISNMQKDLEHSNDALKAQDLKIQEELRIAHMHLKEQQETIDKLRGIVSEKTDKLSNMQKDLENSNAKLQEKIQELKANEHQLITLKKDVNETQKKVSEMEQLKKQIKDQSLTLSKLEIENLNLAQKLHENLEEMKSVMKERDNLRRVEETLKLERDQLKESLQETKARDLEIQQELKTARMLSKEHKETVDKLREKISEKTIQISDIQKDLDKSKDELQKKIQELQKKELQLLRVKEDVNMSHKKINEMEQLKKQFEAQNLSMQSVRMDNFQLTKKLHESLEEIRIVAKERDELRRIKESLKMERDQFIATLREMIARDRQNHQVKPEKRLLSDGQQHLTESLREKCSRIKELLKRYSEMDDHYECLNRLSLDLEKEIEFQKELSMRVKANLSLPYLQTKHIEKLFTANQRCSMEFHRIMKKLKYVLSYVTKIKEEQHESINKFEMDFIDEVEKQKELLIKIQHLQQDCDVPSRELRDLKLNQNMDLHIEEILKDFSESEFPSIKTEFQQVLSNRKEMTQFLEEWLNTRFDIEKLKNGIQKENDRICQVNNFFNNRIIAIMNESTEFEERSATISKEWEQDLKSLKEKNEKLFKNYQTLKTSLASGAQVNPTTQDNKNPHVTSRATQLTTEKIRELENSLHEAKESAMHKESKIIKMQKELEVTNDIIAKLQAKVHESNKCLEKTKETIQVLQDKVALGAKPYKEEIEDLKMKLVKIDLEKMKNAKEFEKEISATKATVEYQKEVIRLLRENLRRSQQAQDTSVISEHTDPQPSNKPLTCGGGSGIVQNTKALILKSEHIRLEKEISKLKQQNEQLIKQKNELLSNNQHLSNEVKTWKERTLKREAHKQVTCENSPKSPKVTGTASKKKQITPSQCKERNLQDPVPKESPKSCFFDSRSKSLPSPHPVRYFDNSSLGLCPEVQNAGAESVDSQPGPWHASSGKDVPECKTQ

[2] = Unbound fraction in plasma (unknown origin) by ultracentrifugation; type: ADME, cell-free
[3] = Volume of distribution at steady state in CD-1 mouse at 1 mg/kg, iv and 10 mg/kg, po; type: ADME, organism-based; conditions: in vivo
OVCAR-3 [4] = test: Antimitotic activity in human OVCAR-3 cells xenografted in CD-1 mouse assessed as increase in phospho-histone H3 positive cells in tumor at 100 mg/kg, po measured after 24 hrs; type: functional, organism-based
[5] = Cmax in CD-1 mouse xenografted with human OVCAR-3 cells at 100 mg/kg, po by LC-MS/MS analysis; type: ADME, organism-based; set-up: dose 100 mg/kg, route po; conditions: in vivo
[6] = Metabolic stability in human liver microsomes assessed as intrinsic clearance at 0.5 uM incubated upto 40 mins by LCMS analysis; type: ADME, Microsome; conditions: read-out: CLH
OVCAR-3 [7] = test: Antimitotic activity in human OVCAR-3 cells xenografted in CD-1 mouse assessed as increase in phospho-histone H3 positive cells in tumor at 100 mg/kg, po measured after 8 hrs; type: functional, organism-based
[8] = Kinetic solubility of compound at pH 2; type: physicochemical; conditions: buffer, read-out: Kinetic_solubility
[9] = Passive permeability across apical to basolateral side in dog MDCK-MDR1 cells at 5 uM; type: ADME, cell-based, Canis lupus familiaris; conditions: read-out: permeability
[10] = Cmax in CD-1 mouse at 1 mg/kg, iv and 10 mg/kg, po; type: ADME, organism-based; set-up: dose 10 mg/kg, route po; conditions: in vivo
[11] = Oral bioavailability in CD-1 mouse at 10 mg/kg; type: ADME, organism-based; conditions: in vivo
[12] = AUC (0 to 24 hrs) in CD-1 mouse xenografted with human OVCAR-3 cells at 100 mg/kg, ip by LC-MS/MS analysis; type: ADME, organism-based; set-up: dose 100 mg/kg, route ip; conditions: in vivo
[13] = target: T1, Kinesin-like protein KIF18A (Homo sapiens, UniProt Q8NI77); test: Inhibition of recombinant His-tagged human KIF18A (1 to 467 residues) expressed in Trichoplusia ni insect cells assessed as inhibition of microtubule-stimulated ATPase activity preincubated for 30 mins followed by ATP addition and further incubated for 15 mins by ADP-Glo reagent based assay; set-up: species or system Insect cell
T1 sequence (Q8NI77 whole entry): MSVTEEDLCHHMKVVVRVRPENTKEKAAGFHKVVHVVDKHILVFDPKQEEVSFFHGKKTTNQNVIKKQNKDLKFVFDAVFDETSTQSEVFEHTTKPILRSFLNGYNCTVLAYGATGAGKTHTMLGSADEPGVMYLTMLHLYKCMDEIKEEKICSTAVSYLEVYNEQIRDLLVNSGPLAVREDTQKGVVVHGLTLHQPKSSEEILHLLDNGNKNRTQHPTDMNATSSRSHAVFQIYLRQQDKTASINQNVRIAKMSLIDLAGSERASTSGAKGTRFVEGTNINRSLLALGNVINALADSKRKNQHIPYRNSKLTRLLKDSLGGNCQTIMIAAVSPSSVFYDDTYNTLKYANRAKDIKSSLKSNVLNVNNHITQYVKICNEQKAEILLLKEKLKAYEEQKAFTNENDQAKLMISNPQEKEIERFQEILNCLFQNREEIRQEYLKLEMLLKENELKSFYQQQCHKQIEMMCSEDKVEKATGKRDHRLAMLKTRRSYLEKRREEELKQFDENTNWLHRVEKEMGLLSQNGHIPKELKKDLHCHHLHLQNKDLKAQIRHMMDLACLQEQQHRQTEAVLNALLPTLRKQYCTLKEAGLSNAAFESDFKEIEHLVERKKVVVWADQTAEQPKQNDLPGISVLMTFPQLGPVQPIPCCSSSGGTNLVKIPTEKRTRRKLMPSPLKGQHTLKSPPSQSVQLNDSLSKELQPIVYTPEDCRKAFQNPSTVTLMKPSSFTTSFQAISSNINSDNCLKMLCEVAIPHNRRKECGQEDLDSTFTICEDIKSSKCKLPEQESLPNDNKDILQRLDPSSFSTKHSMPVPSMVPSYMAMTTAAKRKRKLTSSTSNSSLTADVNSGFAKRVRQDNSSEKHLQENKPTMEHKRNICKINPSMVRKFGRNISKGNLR

[14] = Metabolic stability in mouse liver microsomes assessed as intrinsic clearance at 0.5 uM incubated upto 40 mins by LCMS analysis; type: ADME, Microsome; conditions: read-out: CLH

Question: Which results are given for `CC(C)(C)NS(=O)(=O)c1cccc(NC(=O)c2ncc(NS(C)(=O)=O)nc2N2CCC3(CC2)CC3)n1`?
Answer: IC50 [1]: 86 µM; fraction unbound [2]: 0.022; Vdss [3]: 2 L/kg; Activity (OVCAR-3 [4]): inactive; Cmax [5]: 6.1 µM; microsomal CLint at 0.5 µM [6]: 127 µL/min/mg; Activity (OVCAR-3 [7]): Active; solubility kinetic [8]: 500 µM (≈ 269 µg/mL); Papp A→B at 5 µM [9]: < 0.3 ×10⁻⁶ cm/s; Cmax [10]: 2.15 µM; bioavailability [11]: 35%; AUC(0-t) [12]: 116 µM·h; IC50 [13]: 0.096 µM; microsomal CLint at 0.5 µM [14]: 64 µL/min/mg
